Target: N-His-Tb-BIR3 (241-356, XIAP) (Homo sapiens (Human), UniProt P98170)
Assay: biochemical
Assay type: binding
Settings: fluoresceinated modified SMAC peptide, fluorescence polarization; read-out: XIAP BIR3 FPA IC50

Row | Compound | IC50 [nM]
1 | CN[C@@H](C)C(=O)N[C@H](C(=O)N1Cc2cc(NC(=O)c3ccc(CCC(=O)N[C@H]4C[C@@H](C(=O)N[C@@H]5CCCc6ccccc65)N(C(=O)[C@@H](NC(=O)[C@H](C)NC)C(C)(C)C)C4)cc3)ccc2C[C@H]1C(=O)N[C@@H]1CCCc2ccccc21)C(C)(C)C [Example 9, (S)-2-((S)-3,3-Dimethyl-2-((S)-2-(methylamino)propanamido)butanoyl)-7-(4-(3-(((3S,5S)-1-((S)-3,3-dimethyl-2-((S)-2-(methylamino)propanamido)butanoyl)-5-(((R)-1,2,3,4-tetrahydronaphthalen-1-yl)carbamoyl)pyrrolidin-3-yl)amino)-3-oxopropyl)benzamido)-N-((R)-1,2,3,4-tetrahydronaphthalen-1-yl)-1,2,3,4-tetrahydroisoquinoline-3-carboxamide] | 65
2 | CN[C@@H](C)C(=O)N[C@H](C(=O)N1Cc2cc(NC(=O)c3ccc(C(=O)Nc4ccc5c(c4)CN(C(=O)[C@@H](NC(=O)[C@H](C)NC)C(C)(C)C)[C@H](C(=O)N[C@H](C)c4ccccc4F)C5)cc3)ccc2C[C@H]1C(=O)N[C@H](C)c1ccccc1F)C(C)(C)C [Example 12, N^1,N^4-bis((S)-2-((S)-3,3-Dimethyl-2-((S)-2-(methylamino)propanamido)butanoyl)-3-(((R)-1-(2-fluorophenyl)ethyl)carbamoyl)-1,2,3,4-tetrahydroisoquinolin-7-yl)terephthalamide] | 130
3 | CN[C@@H](C)C(=O)N[C@H](C(=O)N1Cc2cc(NC(=O)c3ccc(C(=O)Nc4ccc5c(c4)CN(C(=O)[C@@H](NC(=O)[C@H](C)NC)C(C)(C)C)[C@H](C(=O)N[C@@H](COC)c4ccccc4)C5)cc3)ccc2C[C@H]1C(=O)N[C@@H](COC)c1ccccc1)C(C)(C)C [Example 14, N^1,N^4-bis((S)-2-((S)-3,3-Dimethyl-2-((S)-2-(methylamino)propanamido)butanoyl)-3-(((R)-2-methoxy-1-phenylethyl)carbamoyl)-1,2,3,4-tetrahydroisoquinolin-7-yl)terephthalamide] | 130
4 | CC[C@H](NC)C(=O)N[C@H](C(=O)N1Cc2cc(NC(=O)c3ccc(C(=O)N[C@H]4C[C@@H](C(=O)N[C@@H]5CCCc6ccccc65)N(C(=O)[C@@H](NC(=O)[C@H](C)NC)C(C)(C)C)C4)cc3)ccc2C[C@H]1C(=O)N[C@@H]1CCCc2ccccc21)C(C)(C)C [Example 15, N^1-((S)-2-((S)-3,3-Dimethyl-2-((S)-2-(methylamino)butanamido)butanoyl)-3-(((R)-1,2,3,4-tetrahydronaphthalen-1-yl)carbamoyl)-1,2,3,4-tetrahydroisoquinolin-7-yl)-N^4-((3S,5S)-1-((S)-3,3-dimethyl-2-((S)-2-(methylamino)propanamido)butanoyl)-5-(((R)-1,2,3,4-tetrahydronaphthalen-1-yl)carbamoyl)pyrrolidin-3-yl)terephthalamide] | 110
5 | CN[C@@H](C)C(=O)N[C@H](C(=O)N1Cc2cc(C(=O)Nc3ccc(C(=O)N[C@H]4C[C@@H](C(=O)N[C@@H]5CCCc6ccccc65)N(C(=O)[C@@H](NC(=O)[C@H](C)NC)C(C)(C)C)C4)cc3)ccc2C[C@H]1C(=O)N[C@@H]1CCCc2ccccc21)C(C)(C)C [Example 27, (S)-2-((S)-3,3-Dimethyl-2-((S)-2-(methylamino)propanamido)butanoyl)-N^7-(4-(((3S,5S)-1-((S)-3,3-dimethyl-2-((S)-2-(methylamino)propanamido)butanoyl)-5-(((R)-1,2,3,4-tetrahydronaphthalen-1-yl)carbamoyl)pyrrolidin-3-yl)carbamoyl)phenyl)-N^3—((R)-1,2,3,4-tetrahydronaphthalen-1-yl)-1,2,3,4-tetrahydroisoquinoline-3,7-dicarboxamide] | 73
6 | CN[C@@H](C)C(=O)N[C@H](C(=O)N1Cc2cc(C(=O)NC3(C(=O)N[C@H]4C[C@@H](C(=O)N[C@@H]5CCCc6ccccc65)N(C(=O)[C@@H](NC(=O)[C@H](C)NC)C(C)(C)C)C4)CC3)ccc2C[C@H]1C(=O)N[C@@H]1CCCc2ccccc21)C(C)(C)C [Example 28, (S)-2-((S)-3,3-Dimethyl-2-((S)-2-(methylamino)propanamido)butanoyl)-N7-(1-(((3S,5S)-1-((S)-3,3-dimethyl-2-((S)-2-(methylamino)propanamido)butanoyl)-5-(((R)-1,2,3,4-tetrahydronaphthalen-1-yl)carbamoyl)pyrrolidin-3-yl)carbamoyl)cyclopropyl)-N3((R)-1,2,3,4-tetrahydronaphthalen-1-yl)-1,2,3,4-tetrahydroisoquinoline-3,7-dicarboxamide] | 98
7 | CN[C@@H](C)C(=O)N[C@H](C(=O)N1Cc2cc(C(=O)NC(C)(C)C(=O)N[C@H]3C[C@@H](C(=O)N[C@@H]4CCCc5ccccc54)N(C(=O)[C@@H](NC(=O)[C@H](C)NC)C(C)(C)C)C3)ccc2C[C@H]1C(=O)N[C@@H]1CCCc2ccccc21)C(C)(C)C [Example 29, (S)-2-((S)-3,3-Dimethyl-2-((S)-2-(methylamino)propanamido)butanoyl)-N7-(1-(((3S,5S)-1-((S)-3,3-dimethyl-2-((S)-2-(methylamino)propanamido)butanoyl)-5-(((R)-1,2,3,4-tetrahydronaphthalen-1-yl)carbamoyl)pyrrolidin-3-yl)amino)-2-methyl-1-oxopropan-2-yl)-N3-((R)-1,2,3,4-tetrahydronaphthalen-1-yl)-1,2,3,4-tetrahydroisoquinoline-3,7-dicarboxamide] | 61
8 | CN[C@@H](C)C(=O)N[C@H](C(=O)N1CC[C@@H](OCc2ccc(C(=O)N[C@H]3C[C@@H](C(=O)N[C@@H]4CCCc5ccccc54)N(C(=O)[C@@H](NC(=O)[C@H](C)NC)C(C)(C)C)C3)cc2)C[C@H]1C(=O)N[C@@H]1CCCc2ccccc21)C(C)(C)C [Example 30, (2S,4R)-1-((S)-3,3-Dimethyl-2-((S)-2-(methylamino)propanamido)butanoyl)-4-((4-(((3S,5S)-1-((S)-3,3-dimethyl-2-((S)-2-(methylamino)propanamido)butanoyl)-5-(((R)-1,2,3,4-tetrahydronaphthalen-1-yl)carbamoyl)pyrrolidin-3-yl)carbamoyl)benzyl)oxy)-N—((R)-1,2,3,4-tetrahydronaphthalen-1-yl)piperidine-2-carboxamide] | 38
9 | CN[C@@H](C)C(=O)N[C@H](C(=O)N1Cc2cc(NCc3ccc(C(=O)N[C@H]4C[C@@H](C(=O)N[C@@H]5CCCc6ccccc65)N(C(=O)[C@@H](NC(=O)[C@H](C)NC)C(C)(C)C)C4)cc3)ccc2C[C@H]1C(=O)N[C@@H]1CCCc2ccccc21)C(C)(C)C [Example 31, (S)-2-((S)-3,3-Dimethyl-2-((S)-2-(methylamino)propanamido)butanoyl)-7-((4-(((3S,5S)-1-((S)-3,3-dimethyl-2-((S)-2-(methylamino)propanamido)butanoyl)-5-(((R)-1,2,3,4-tetrahydronaphthalen-1-yl)carbamoyl)pyrrolidin-3-yl)carbamoyl)benzyl)amino)-N—((R)-1,2,3,4-tetrahydronaphthalen-1-yl)-1,2,3,4-tetrahydroisoquinoline-3-carboxamide] | 71
10 | CN[C@@H](C)C(=O)N[C@H](C(=O)N1Cc2cc(N(Cc3ccc(C(=O)N[C@H]4C[C@@H](C(=O)N[C@@H]5CCCc6ccccc65)N(C(=O)[C@@H](NC(=O)[C@H](C)NC)C(C)(C)C)C4)cc3)C(C)=O)ccc2C[C@H]1C(=O)N[C@@H]1CCCc2ccccc21)C(C)(C)C [Example 32, (S)-2-((S)-3,3-Dimethyl-2-((S)-2-(methylamino)propanamido)butanoyl)-7-(N-(4-(((3S,5S)-1-((S)-3,3-dimethyl-2-((S)-2-(methylamino)propanamido)butanoyl)-5-(((R)-1,2,3,4-tetrahydronaphthalen-1-yl)carbamoyl)pyrrolidin-3-yl)carbamoyl)benzyl)acetamido)-N—((R)-1,2,3,4-tetrahydronaphthalen-1-yl)-1,2,3,4-tetrahydroisoquinoline-3-carboxamide] | 35
11 | CN[C@@H](C)C(=O)N[C@H](C(=O)N1Cc2cc(NCc3ccc(C(=O)N[C@H]4C[C@@H](C(=O)N[C@@H]5CCCc6ccccc65)N(C(=O)[C@@H](NC(=O)[C@H](C)NC)C(C)(C)C)C4)cc3Cl)ccc2C[C@H]1C(=O)N[C@@H]1CCCc2ccccc21)C(C)(C)C [Example 33, (S)-7-((2-Chloro-4-(((3S,5S)-1-((S)-3,3-dimethyl-2-((S)-2-(methylamino)propanamido)butanoyl)-5-(((R)-1,2,3,4-tetrahydronaphthalen-1-yl)carbamoyl)pyrrolidin-3-yl)carbamoyl)benzyl)amino)-2-((S)-3,3-dimethyl-2-((S)-2-(methylamino)propanamido)butanoyl)-N—((R)-1,2,3,4-tetrahydronaphthalen-1-yl)-1,2,3,4-tetrahydroisoquinoline-3-carboxamide] | 66

Same assay, conditions: read-out: XIAP BIR3 FPA IC50

Row | Compound | IC50 [nM]
12 | CN[C@@H](C)C(=O)N[C@H](C(=O)N1Cc2cc(NC(=O)C(F)(F)C(F)(F)C(=O)N[C@H]3C[C@@H](C(=O)N[C@@H]4CCCc5ccccc54)N(C(=O)[C@@H](NC(=O)[C@H](C)NC)C(C)(C)C)C3)ccc2C[C@H]1C(=O)N[C@@H]1CCCc2ccccc21)C(C)(C)C [Example 17, N^1—((S)-2-((S)-3,3-Dimethyl-2-((S)-2-(methylamino)propanamido)butanoyl)-3-(((R)-1,2,3,4-tetrahydronaphthalen-1-yl)carbamoyl)-1,2,3,4-tetrahydroisoquinolin-7-yl)-N^4-((3S,5S)-1-((S)-3,3-dimethyl-2-((S)-2-(methylamino)propanamido)butanoyl)-5-(((R)-1,2,3,4-tetrahydronaphthalen-1-yl)carbamoyl)pyrrolidin-3-yl)-2,2,3,3-tetrafluorosuccinamide] | 56
